The values that follow come from US11312790B2, “Production method for pentosan polysulfate” (OJI HOLDINGS CORPORATION, priority 2016, dated 2022).

Test [1] deals with T1, factor IIa (Homo sapiens, UniProt P00734).
T1 construct: purchased Hyphen BioMed Biophen heparin anti-IIa
As to the kind of experiment: Measurement of anti-IIa activity using Biophen heparin anti-IIa. The test is classed as biochemical. The note with it: Biophen heparin anti-IIa kit. From the text: In general, anticoagulant activity is based on the activity of inhibiting blood coagulation factors. That is, when anticoagulant activity is high, a blood coagulation reaction is inhibited. Blood coagulation factors refer to the action system of a series of molecules in a living body for coagulating blood when bleeding etc. Successive activation of a large number of blood coagulation factors agglutinates fibrin, and stops bleeding in the bleeding area. Representative examples of blood coagulation factors include factor Xa and factor IIa. Blood coagulation can be inhibited by inhibiting the activity of these factors. The factor IIa inhibitory activity (anti-IIa activity) can be measured using Biophen heparin anti-IIa (manufactured by Hyphen BioMed). Measurement of Anti-IIa Activity The anti-IIa activity of pentosan polysulfate sodium was measured using Biophen heparin anti-IIa (manufactured by Hyphen BioMed).

Test [2] deals with factor Xa. In words: Measurement of anti-Xa activity using Test Team Heparin S. The test is classed as biochemical. The note with it: Test Team Heparin S kit. An excerpt:
In general, anticoagulant activity is based on the activity of inhibiting blood coagulation factors. That is, when anticoagulant activity is high, a blood coagulation reaction is inhibited. Blood coagulation factors refer to the action system of a series of molecules in a living body for coagulating blood when bleeding etc. Successive activation of a large number of blood coagulation factors agglutinates fibrin, and stops bleeding in the bleeding area. Representative examples of blood coagulation factors include factor Xa and factor IIa. Blood coagulation can be inhibited by inhibiting the activity of these factors. Here, the factor Xa inhibitory activity (anti-Xa activity) can be measured using Test Team (registered trademark) Heparin S (manufactured by Sekisui Medical Co., Ltd.). Measurement of Anti-Xa Activity The anti-Xa activity of pentosan polysulfate sodium was measured using Test Team (registered trademark) Heparin S (manufactured by Sekisui Medical Co., Ltd.).

Take “pentosan polysulfate sodium [Comparative Example 1, reference compound]”: the Anti-IIa activity in test [1] turned out to be 0.0221 IU/mg. For the same substance, in test [2], the Anti-Xa activity is on record as 0.0840 IU/mg.

In the case of pentosan polysulfate sodium [Example 1], the Anti-IIa activity in test [1] is listed as 0.1405 IU/mg. In test [2], the Anti-Xa activity came to 0.2047 IU/mg.

For the substance pentosan polysulfate sodium [Example 2], the Anti-IIa activity in test [1] came out at 0.1845 IU/mg. The substance further gave an Anti-Xa activity in test [2] of 0.2588 IU/mg.

For the substance pentosan polysulfate sodium [Example 3], in test [1], the Anti-IIa activity was determined as 0.0676 IU/mg. Moreover, the Anti-Xa activity in test [2] came out at 0.2439 IU/mg.

The substance pentosan polysulfate sodium [Example 4] gave an Anti-IIa activity in test [1] of 0.0934 IU/mg. In test [2], the Anti-Xa activity is reported as 0.2419 IU/mg.

For pentosan polysulfate sodium [Example 5], the Anti-IIa activity in test [1] was 0.0976 IU/mg. This substance registered an Anti-Xa activity in test [2] of 0.2297 IU/mg.
